Measurements taken from paper PMC11705451 (FEBS Open Bio, 2024).
Read-outs that look alike come from different tables or passages of the source.

Key:
[1] = target: T1, hS1P5 (ProLink-tagged, PathHunter) (Homo sapiens, UniProt Q9H228); assay: PathHunter beta-arrestin recruitment; format: cell-based
T1 construct: gene S1PR5; ProLink-tagged receptor, PathHunter HEK293 cells

[2] = target: T2, hS1P4 (ProLink-tagged, PathHunter) (Homo sapiens, UniProt O95977); assay: cell-based; parameters: species or system PathHunter HEK293; PathHunter beta-arrestin recruitment, agonist concentration-response; details: HEK293, read-out: S1P4 β-Arrestin Emax, % of S1P
T2 construct: gene S1PR4; ProLink-tagged receptor, PathHunter HEK293 cells
T2 sequence (O95977 1-384): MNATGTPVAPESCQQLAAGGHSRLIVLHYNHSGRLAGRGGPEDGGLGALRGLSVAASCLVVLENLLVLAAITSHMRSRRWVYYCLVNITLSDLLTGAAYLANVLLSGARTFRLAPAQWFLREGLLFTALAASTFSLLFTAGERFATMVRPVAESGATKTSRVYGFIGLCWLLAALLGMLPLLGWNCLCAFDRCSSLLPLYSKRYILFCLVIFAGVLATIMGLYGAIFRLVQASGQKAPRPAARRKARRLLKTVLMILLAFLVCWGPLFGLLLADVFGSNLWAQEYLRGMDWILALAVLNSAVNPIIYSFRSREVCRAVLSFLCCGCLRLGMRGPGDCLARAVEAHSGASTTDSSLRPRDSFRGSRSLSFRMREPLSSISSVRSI
From the text: (§1) We extended our pharmacological analysis of etrasimod and the other test compounds on S1P2–5. […] All tested compounds were agonists of S1P5, inducing both G protein signaling and β‐arrestin recruitment (Table S2).

[3] = target: T1, hS1P5 (ProLink-tagged, PathHunter); assay: cell-based; parameters: species or system PathHunter HEK293; PathHunter beta-arrestin recruitment, agonist concentration-response; details: HEK293, read-out: S1P5 β-Arrestin Emax, % of S1P
From the text: as §1

hS1P3 [4] = target: T3, hS1P3 (Homo sapiens, UniProt Q99500); assay: […]GTPgammaS binding, CHO-K1 membranes; format: biochemical
T3 construct: gene S1PR3; receptor stably expressed in CHO-K1 cells
T3 sequence (Q99500 whole entry): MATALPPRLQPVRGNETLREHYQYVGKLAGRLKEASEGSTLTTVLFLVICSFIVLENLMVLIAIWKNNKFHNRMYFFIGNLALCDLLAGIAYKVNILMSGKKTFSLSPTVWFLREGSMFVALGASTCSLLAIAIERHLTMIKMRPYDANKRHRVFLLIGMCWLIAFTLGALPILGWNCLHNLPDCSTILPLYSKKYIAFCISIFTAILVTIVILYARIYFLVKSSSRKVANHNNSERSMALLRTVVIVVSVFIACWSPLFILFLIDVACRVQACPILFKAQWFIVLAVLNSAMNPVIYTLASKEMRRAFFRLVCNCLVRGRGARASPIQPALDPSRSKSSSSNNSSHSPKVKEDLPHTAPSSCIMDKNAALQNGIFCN

[5] = target: T2, hS1P4 (ProLink-tagged, PathHunter); assay: PathHunter beta-arrestin recruitment; format: cell-based
hS1P5 [6] = target: T4, hS1P5 (Homo sapiens, UniProt Q9H228); assay: […]GTPgammaS binding, CHO-K1 membranes; format: biochemical
T4 construct: gene S1PR5; receptor stably expressed in CHO-K1 cells
T4 sequence (Q9H228 whole entry): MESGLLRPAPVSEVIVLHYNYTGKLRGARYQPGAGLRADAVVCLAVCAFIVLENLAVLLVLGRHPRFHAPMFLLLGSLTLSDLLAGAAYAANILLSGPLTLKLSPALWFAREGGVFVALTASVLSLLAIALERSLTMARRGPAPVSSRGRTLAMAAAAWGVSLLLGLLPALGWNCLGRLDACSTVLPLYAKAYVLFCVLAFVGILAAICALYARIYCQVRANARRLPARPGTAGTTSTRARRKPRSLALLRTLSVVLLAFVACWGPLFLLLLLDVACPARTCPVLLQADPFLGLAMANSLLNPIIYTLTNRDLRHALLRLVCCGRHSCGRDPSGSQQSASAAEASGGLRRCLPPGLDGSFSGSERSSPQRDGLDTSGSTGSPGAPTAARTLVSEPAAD

hS1P4 [7] = target: T5, hS1P4 (Homo sapiens, UniProt O95977); assay: […]GTPgammaS binding, CHO-K1 membranes; format: biochemical
T5 construct: gene S1PR4; receptor stably expressed in CHO-K1 cells
T5 sequence (O95977 1-384): T2 sequence (O95977 1-384)

hS1P5 [8] = target: T4, hS1P5; assay: biochemical; format: CHO-K1 membranes; parameters: [35S]GTPgammaS binding to membranes, agonist concentration-response; details: read-out: S1P5 GTPγS Emax, % of S1P
From the text: (§2) All tested compounds were agonists of S1P5, inducing both G protein signaling and β‐arrestin recruitment (Table S2).

hS1P2 [9] = target: T6, hS1P2 (Homo sapiens, UniProt O95136); assay: […]GTPgammaS binding, CHO-K1 membranes; format: biochemical
T6 construct: gene S1PR2; receptor stably expressed in CHO-K1 cells
T6 sequence (O95136 whole entry): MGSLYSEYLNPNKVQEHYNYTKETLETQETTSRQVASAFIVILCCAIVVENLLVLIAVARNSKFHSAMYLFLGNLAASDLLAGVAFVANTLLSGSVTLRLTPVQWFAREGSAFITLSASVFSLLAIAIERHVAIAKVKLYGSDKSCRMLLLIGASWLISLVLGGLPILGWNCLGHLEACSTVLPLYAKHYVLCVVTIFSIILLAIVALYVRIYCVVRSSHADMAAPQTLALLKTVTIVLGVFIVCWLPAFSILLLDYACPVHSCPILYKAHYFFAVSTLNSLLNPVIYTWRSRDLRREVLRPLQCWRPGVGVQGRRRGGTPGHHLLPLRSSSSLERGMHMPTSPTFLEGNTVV

hS1P3 [10] = target: T3, hS1P3; assay: biochemical; format: CHO-K1 membranes; parameters: [35S]GTPgammaS binding to membranes, agonist concentration-response; details: read-out: S1P3 GTPγS Emax, % of S1P
From the text: as §2

[11] = target: T7, hS1P2 (ProLink-tagged, PathHunter) (Homo sapiens, UniProt O95136); assay: PathHunter beta-arrestin recruitment; format: cell-based
T7 construct: gene S1PR2; PathHunter HEK293 cells, ProLink-tagged; N-terminal HA tag in the internalization assay
T7 sequence (O95136 whole entry): as above

hS1P4 [12] = target: T5, hS1P4; assay: biochemical; format: CHO-K1 membranes; parameters: [35S]GTPgammaS binding to membranes, agonist concentration-response; details: read-out: S1P4 GTPγS Emax, % of S1P
From the text: as §2

[13] = target: T8, hS1P3 (ProLink-tagged, PathHunter) (Homo sapiens, UniProt Q99500); assay: cell-based; parameters: species or system PathHunter HEK293; PathHunter beta-arrestin recruitment, agonist concentration-response; details: HEK293, read-out: S1P3 β-Arrestin Emax, % of S1P
T8 construct: gene S1PR3; ProLink-tagged receptor, PathHunter HEK293 cells
T8 sequence (Q99500 whole entry): as the sequence (Q99500 whole entry) above
From the text: as §1

hS1P2 [14] = target: T6, hS1P2; assay: biochemical; format: CHO-K1 membranes; parameters: [35S]GTPgammaS binding to membranes, agonist concentration-response; details: read-out: S1P2 GTPγS Emax, % of S1P
From the text: as §2

[15] = target: T7, hS1P2 (ProLink-tagged, PathHunter); assay: receptor internalization, fluorescence microscopy; format: cell-based; details: N-terminal HA tag, 37 °C

T1 sequence (Q9H228 whole entry): as the sequence (Q9H228 whole entry) above

SMILES | EC50 [1] [nM] | Emax [2] [%] | Emax [3] [%] | EC50 (hS1P3 [4]) [nM] | EC50 [5] [nM] | EC50 (hS1P5 [6]) [nM] | EC50 (hS1P4 [7]) [nM] | Emax (hS1P5 [8]) [%] | EC50 (hS1P2 [9]; read-out: EC50) [nM] | Emax (hS1P3 [10]) [%] | EC50 ([11]; read-out: EC50) [nM] | Emax (hS1P4 [12]) [%] | EC50 (hS1P2 [9]; agonist, 0.1% fatty acid-free BSA, room temperature, 10 mM MgCl2) | Emax [13] [%] | Emax (hS1P2 [14]) [%] | EC50 ([11]; agonist, 0.1% fatty acid-free BSA, room temperature, 2 h) | receptor internalization, fluorescence microscopy [15]
CC(C)Oc1ccc(-c2nc(-c3cccc4c3CCC4=O)no2)cc1C#N [Ozanimod(K)] | 95.8 | 89.1 | 115 | > 10000 | > 500 | 58.5 | > 10000 | 105 | – | – | – | – | – | – | – | – | –
O=C(O)C[C@H]1CCc2c1[nH]c1ccc(OCc3ccc(C4CCCC4)c(C(F)(F)F)c3)cc21 [Etrasimod] | 63.5 | 53.9 | 85.7 | 6050 | 141 | 63.4 | > 10000 | 72 | > 10000 | 41.5 | > 10000 | – | – | – | – | – | –
CCc1cc(/C(C)=N/OCc2ccc(C3CCCCC3)c(C(F)(F)F)c2)ccc1CN1CC(C(=O)O)C1 [Siponimod] | – | 92.6 | 107 | > 10000 | > 500 | – | 510 | 118 | – | – | – | 134 | – | – | – | – | –
CCCCCCCCc1ccc(CCC(N)(CO)COP(=O)(O)O)cc1 (stereo not shown) [Fingolimod(P)] | – | 77.6 | 48.4 | – | 6.9 | – | 6.1 | 69.5 | – | 39.1 | – | 121 | fingolimod(P) was a weak agonist, in terms of both potency and efficacy | 9.1 | 35.2 | fingolimod(P) was a weak agonist, in terms of both potency and efficacy | –
CC(C)Oc1ccc(-c2nc(-c3cccc4c3CC[C@@H]4NCCO)no2)cc1C#N [Ozanimod] | 12.3 | – | – | > 6000 | > 500 | 28.8 | > 10000 | – | – | – | – | – | – | – | – | – | Fingolimod(P) and ozanimod induced robust S1P2 internalization in a dose‐dependent and saturable fashion
